Data on 15 compounds can be found in patent publication US9617283B2, “Bicyclic heterocycle compounds and their uses in therapy” (ASTEX THERAPEUTICS LIMITED, priority 2012, dated 2017).

Counter-ions that a name gives are not always drawn. Like-named read-outs stand apart in the source and are kept apart here.

The test system of the assay is EVSA-T (human breast carcinoma). The assay can be described thus: Anti-proliferative activity, Alamar Blue assay, EVSA-T. The settings on record: Homo sapiens. In kind it is cell-based.
Setting [1] is: EVSA-T, 72 h, EVSA-T cell line, 72 hours, Alamar Blue, read-out: EVSA-T prolif.
Setting [2] is: EVSA-T, read-out: EC50 in EVSA-T cell line assays.
The mark [3] stands for this setting: EVSA-T cell line, 72 hours, Alamar Blue, read-out: EVSA-T prolif.

Description: Anti-Proliferative Activity
The method is based on the ability of viable cells to reduce resazurin to its fluorescent product resorufin. For each proliferation assay cells are plated onto 96 well plates and allowed to recover for 16 hours prior to the addition of inhibitor compounds (in 0.1% DMSO v/v) for a further 72 hours. […] The anti-proliferative activities of compounds of the invention can be determined by measuring the ability of the compounds to inhibit growth in 3 cancer cell lines: • EVSA-T (human breast carcinoma) DSMZ cat. no.

On to `C[C@@H]1CC(=O)N(C[C@H]2CN[C@H](C)CN2CC(=O)N2CC(C)(C)c3ncc(Cc4ccc(F)cc4)cc32)C1` [Example 16, (4R)-1-{[(2R,5R)-1-(2-{6-[(4-Fluorophenyl)methyl]-3,3-dimethyl-1H,2H,3H-pyrrolo[3,2-b]pyridin-1-yl}-2-oxoethyl)-5-methylpiperazin-2-yl]methyl}-4-methylpyrrolidin-2-one dihydrochloride], for which the EC50 under setting [1] amounted to 6 nM. In the case of `COC[C@@H]1CN(C[C@H]2CN[C@H](C)CN2CC(=O)N2CC(C)(C)c3nnc(Cc4ccc(F)cc4F)cc32)C(=O)CO1` [Example 101, (6S)-4-{[(2R,5R)-1-(2-{3-[(2,4-Difluorophenyl)methyl]-7,7-dimethyl-5H,6H,7H-pyrrolo[3,2-c]pyridazin-5-yl}-2-oxoethyl)-5-methylpiperazin-2-yl]methyl}-6-(methoxymethyl)morpholin-3-one dihydrochloride], the EC50 was 25 nM under setting [1] and below 1000 nM under setting [2]. On the same counts, the results for `C[C@@H]1CN(CC(=O)N2CC(C)(C)c3nnc(Cc4ccc(F)cc4F)cc32)[C@@H](CN2Cc3c(C#N)cccc3C2=O)CN1` [Example 119, 2-{[(2R,5R)-1-(2-{3-[(2,4-Difluorophenyl)methyl]-7,7-dimethyl-5H,6H,7H-pyrrolo[3,2-c]pyridazin-5-yl}-2-oxoethyl)-5-methylpiperazin-2-yl]methyl}-1-oxo-2,3-dihydro-1H-isoindole-4-carbonitrile dihydrochloride] are 7.5 nM and below 1000 nM. Turning to `CCCC(F)(F)c1cnc2c(c1)N(C(=O)CN1C[C@@H](C)NC[C@@H]1CN1Cc3ncccc3C1=O)CC2(C)C` [Example 66, 6-{[(2R,5R)-1-{2-[6-(1,1-Difluorobutyl)-3,3-dimethyl-1H,2H,3H-pyrrolo[3,2-b]pyridin-1-yl]-2-oxoethyl}-5-methylpiperazin-2-yl]methyl}-5H,6H,7H-pyrrolo[3,4-b]pyridin-5-one], the EC50 under setting [2] was below 1000 nM. As to `C[C@@H]1CN(CC(=O)N2CC(C)(C)c3ncc(Cc4ccc(F)cc4)cc32)[C@@H](CN2C(=O)[C@@H]3CC[C@H]2C3)CN1` [Example 8, (1S,4R)-2-{[(2R,5R)-1-(2-{6-[(4-Fluorophenyl)methyl]-3,3-dimethyl-1H,2H,3H-pyrrolo[3,2-b]pyridin-1-yl}-2-oxoethyl)-5-methylpiperazin-2-yl]methyl}-2-azabicyclo[2.2.1]heptan-3-one dihydrochloride], the EC50 by setting is: under setting [1], 7.1 nM; under setting [2], below 1000 nM. As to `C[C@@H]1CN(CC(=O)N2CC(C)(C)c3ncc(Cc4ccc(F)cc4)cc32)[C@@H](CN2C[C@H](C)N(C)CC2=O)CN1` [Example 43, (5S)-1-{[(2R,5R)-1-(2-{6-[(4-Fluorophenyl)methyl]-3,3-dimethyl-1H,2H,3H-pyrrolo[3,2-b]pyridin-1-yl}-2-oxoethyl)-5-methylpiperazin-2-yl]methyl}-4,5-dimethylpiperazin-2-one dihydrochloride], the EC50 is 12 nM under setting [1] and below 1000 nM under setting [2]. As to `C[C@@H]1CN(CC(=O)N2CC(C)(C)c3nnc(Cc4ccc(F)cc4F)cc32)[C@@H](CN2Cc3ccc(F)cc3C2=O)CN1` [Example 93, 2-{[(2R,5R)-1-(2-{3-[(2,4-Difluorophenyl)methyl]-7,7-dimethyl-5H,6H,7H-pyrrolo[3,2-c]pyridazin-5-yl}-2-oxoethyl)-5-methylpiperazin-2-yl]methyl}-6-fluoro-2,3-dihydro-1H-isoindol-1-one dihydrochloride], the EC50 under setting [3] worked out at 0.5 nM.

Turning to `C[C@@H]1CN(CC(=O)N2CC(C)(C)c3nnc(Cc4ccc(F)cc4F)cc32)[C@@H](CN2Cc3ncccc3C2=O)CN1` [Example 64, 6-{[(2R,5R)-1-(2-{3-[(2,4-Difluorophenyl)methyl]-7,7-dimethyl-5H,6H,7H-pyrrolo[3,2-c]pyridazin-5-yl}-2-oxoethyl)-5-methylpiperazin-2-yl]methyl}-5H,6H,7H-pyrrolo[3,4-b]pyridin-5-one], the EC50 under setting [2] is below 1000 nM. For `C[C@@H]1CN(CC(=O)N2CC(C)(C)c3nnc(Cc4ccc(F)cc4)cc32)[C@@H](CN2C[C@H](C)OCC2=O)CN1` [Example 53, (6S)-4-{[(2R,5R)-1-(2-{3-[(4-Fluorophenyl)methyl]-7,7-dimethyl-5H,6H,7H-pyrrolo[3,2-c]pyridazin-5-yl}-2-oxoethyl)-5-methylpiperazin-2-yl]methyl}-6-methylmorpholin-3-one], the EC50 under setting [2] is below 1000 nM. Consider `C[C@@H]1CN(CC(=O)N2CC(C)(C)c3nnc(Cc4ccc(F)cc4F)cc32)[C@@H](CN2Cc3cc(F)ccc3C2=O)CN1` [Example 103, 2-{[(2R,5R)-1-(2-{3-[(2,4-Difluorophenyl)methyl]-7,7-dimethyl-5H,6H,7H-pyrrolo[3,2-c]pyridazin-5-yl}-2-oxoethyl)-5-methylpiperazin-2-yl]methyl}-5-fluoro-2,3-dihydro-1H-isoindol-1-one dihydrochloride], for which the EC50 under setting [3] worked out at 0.18 nM. `C[C@H]1CC(=O)N(C[C@H]2CN[C@H](C)CN2CC(=O)N2CC(C)(C)c3ncc(Cc4ccc(F)cc4)cc32)C1` [Example 17, (4S)-1-{[(2R,5R)-1-(2-{6-[(4-Fluorophenyl)methyl]-3,3-dimethyl-1H,2H,3H-pyrrolo[3,2-b]pyridin-1-yl}-2-oxoethyl)-5-methylpiperazin-2-yl]methyl}-4-methylpyrrolidin-2-one dihydrochloride]: the EC50 was 3.1 nM under setting [1] and below 1000 nM under setting [2]. With `CCC1CC(=O)N(C[C@H]2CN[C@H](C)CN2CC(=O)N2CC(C)(C)c3ncc(Cc4ccc(F)cc4)cc32)C1` (single isomer, unassigned) [Example 82, (4R or 4S)-4-Ethyl-1-{[(2R,5R)-1-(2-{6-[(4-fluorophenyl)methyl]-3,3-dimethyl-1H,2H,3H-pyrrolo[3,2-b]pyridin-1-yl}-2-oxoethyl)-5-methylpiperazin-2-yl]methyl}pyrrolidin-2-one dihydrochloride], the EC50 is, setting by setting: under setting [1], 1.5 nM; under setting [2], below 1000 nM. As for `C[C@@H]1CN(CC(=O)N2CC(C)(C)c3cnc(Cc4ccc(F)cc4F)cc32)[C@@H](CN2Cc3ncccc3C2=O)CN1` [Example 63, 6-{[(2R,5R)-1-(2-{6-[(2,4-Difluorophenyl)methyl]-3,3-dimethyl-1H,2H,3H-pyrrolo[3,2-c]pyridin-1-yl}-2-oxoethyl)-5-methylpiperazin-2-yl]methyl}-5H,6H,7H-pyrrolo[3,4-b]pyridin-5-one], the EC50 under setting [2] was below 1000 nM. Take `C[C@@H]1CN(CC(=O)N2CC(C)(C)c3nnc(Cc4ccc(F)cc4F)cc32)[C@@H](CN2Cc3cc(C#N)ccc3C2=O)CN1` [Example 109, 2-{[(2R,5R)-1-(2-{3-[(2,4-Difluorophenyl)methyl]-7,7-dimethyl-5H,6H,7H-pyrrolo[3,2-c]pyridazin-5-yl}-2-oxoethyl)-5-methylpiperazin-2-yl]methyl}-1-oxo-2,3-dihydro-1H-isoindole-5-carbonitrile dihydrochloride]: under setting [3], the EC50 turned out to be 0.64 nM. Consider `C[C@@H]1CN(CC(=O)N2CC(C)(C)c3nnc(Cc4ccc(F)cc4)cc32)[C@@H](CN2Cc3ccccc3C2=O)CN1` [Example 61, 2-{[(2R,5R)-1-(2-{3-[(4-Fluorophenyl)methyl]-7,7-dimethyl-5H,6H,7H-pyrrolo[3,2-c]pyridazin-5-yl}-2-oxoethyl)-5-methylpiperazin-2-yl]methyl}-2,3-dihydro-1H-isoindol-1-one dihydrochloride], for which the EC50 under setting [3] was determined as 1.5 nM.
